In EP3609473B1, “ORAL COMPOSITIONS FOR THE TREATMENT OF IRON […]” (Labomar S.p.A., priority 2017, dated 2018):

Details: after SGF, 50 ml simulated intestinal fluid (SIF) added, pH settled at 6.0 with NaOH 2.5% w/v
Description: The solid composition (A) is maintained for 90 minutes (corresponding to the empty stomach emptying time) in a simulated gastric environment (SGF) pH 1.5 by adding HCl, thermostated at 37°C.
Subsequently, 50 ml of simulated intestinal fluid (SIF) are added to the system to simulate the transit in the first intestinal tract and the pH is settled at 6.0 with NaOH 2.5% w/v.

NCC(=O)[O-].NCC(=O)[O-].[Fe+2] [bisglycinate iron, ferrous bisglycinate]
colour of the liquid (purple = iron in reduced form; amber = no more reducible ferric oxides): amber-coloured liquid
